Reference: PubChem BioAssay AID274 (DTP/NCI, 2004)
Values joined by “and” are separate entries in the source; they are usually repeats but may differ in a detail not shown here. Identical values can stand only once. Inconclusive results and toxic doses are left out. Rule for the calls: active = survival T/C of 150% or more; inactive = T/C below 125% in these data. Peptide text beside a SMILES is read from it. * marks the point of attachment. Trt = c1ccc(C(c2ccccc2)(c2ccccc2)*)cc1; Cbz = O=C(OCc1ccccc1)*

System: BDF1 mice, Lewis lung carcinoma iv, survival T/C
Test: NCI In Vivo Anticancer Drug Screen. Data for tumor model Lewis Lung Carcinoma (intravenous) in B6D2F1 (BDF1) mice
Conditions: endpoint: median survival time, higher = longer survival
Experimental: The antitumor activity of compounds was measured in mice bearing transplantable tumors. Survival or tumor size were measured and the results are expressed as the measurement made in the treated group (T) divided by the measurement made in the vehicle treated control group (C). The tumor model used in this assay is Lewis Lung Carcinoma (intravenous) in B6D2F1 (BDF1) mice

[1] = dose: 6.25 mg/kg/injection, schedule: Q01DX009 (ip), vehicle: saline
[2] = dose: 12.5 mg/kg/injection, schedule: Q01DX009 (ip), vehicle: saline
[3] = dose: 25.0 mg/kg/injection, schedule: Q01DX009 (ip), vehicle: saline
[4] = dose: 50.0 mg/kg/injection, schedule: Q01DX009 (ip), vehicle: saline
[5] = dose: 100.0 mg/kg/injection, schedule: Q01DX009 (ip), vehicle: saline
[6] = dose: 200.0 mg/kg/injection, schedule: Q01DX009 (ip), vehicle: saline
[7] = dose: 12.5 mg/kg/injection, schedule: Q01DX009 (ip), vehicle: saline with Tween-80
[8] = dose: 25.0 mg/kg/injection, schedule: Q01DX009 (ip), vehicle: saline with Tween-80
[9] = dose: 200.0 mg/kg/injection, schedule: Q01DX009 (ip), vehicle: saline with Tween-80
[10] = dose: 50.0 mg/kg/injection, schedule: Q01DX009 (ip), vehicle: saline with Tween-80
[11] = dose: 100.0 mg/kg/injection, schedule: Q01DX009 (ip), vehicle: saline with Tween-80
[12] = dose: 400.0 mg/kg/injection, schedule: Q01DX009 (ip), vehicle: saline with Tween-80
[13] = dose: 12.5 mg/kg/injection, schedule: Q01DX009 (ip), vehicle: distilled water + Tween-80
[14] = dose: 400.0 mg/kg/injection, schedule: Q01DX009 (ip), vehicle: saline

Measured: T/C

CC(C)=CC(=O)OC1C2C(C)=CC(=O)C(O)C2(C)C2C3(O)OCC24C(CC(=O)OC14)C(C)C3O (centres undefined)
inactive: dose: 0.25 mg/kg/injection, schedule: Q01DX009 (ip), vehicle: distilled water + Tween-80 92 % of control | dose: 0.5 mg/kg/injection, schedule: Q01DX009 (ip), vehicle: distilled water + Tween-80 90 % of control | dose: 1.0 mg/kg/injection, schedule: Q01DX009 (ip), vehicle: distilled water + Tween-80 106 % of control | dose: 2.0 mg/kg/injection, schedule: Q01DX009 (ip), vehicle: distilled water + Tween-80 103 % of control

O=C(/C=C(\Cl)C(=O)NO)NO
inactive: [1] 124 % of control | [2] 105 % of control | [3] 105 % of control | [4] 110 % of control | [5] 115 % of control | [6] 104 % of control

CS(=O)(=O)OCCCNCCCOS(C)(=O)=O
inactive: dose: 5.0 mg/kg/injection, schedule: Q01DX009 (ip), vehicle: saline 96 % of control | dose: 10.0 mg/kg/injection, schedule: Q01DX009 (ip), vehicle: saline 106 % of control and 114 % of control | dose: 20.0 mg/kg/injection, schedule: Q01DX009 (ip), vehicle: saline 108 % of control | dose: 40.0 mg/kg/injection, schedule: Q01DX009 (ip), vehicle: saline 113 % of control

CC1(CO)C(O)CCC2(C)C1CCC1CC3CC12CCC3(O)CO (centres undefined)
inactive: dose: 6.25 mg/kg/injection, schedule: Q01DX009 (ip), vehicle: saline with Tween-80 87 % of control | [7] 97 % of control | [8] 110 % of control | [9] 106 % of control

[O-][n+]1c(CN2CCCCC2)nc2cccc3c2c1-c1ccccc1-3
inactive: [7] 98 % of control and 100 % of control | [8] 98 % of control and 123 % of control | [10] 105 % of control and 106 % of control | [11] 111 % of control and 116 % of control | [9] 102 % of control and 118 % of control | [12] 111 % of control

O=C(O)C1CC1.[Ag]
inactive: dose: 0.78 mg/kg/injection, schedule: Q01DX009 (ip), vehicle: distilled water + Tween-80 96 % of control | dose: 1.56 mg/kg/injection, schedule: Q01DX009 (ip), vehicle: distilled water + Tween-80 110 % of control | dose: 3.12 mg/kg/injection, schedule: Q01DX009 (ip), vehicle: distilled water + Tween-80 96 % of control | dose: 6.25 mg/kg/injection, schedule: Q01DX009 (ip), vehicle: distilled water + Tween-80 100 % of control | [13] 107 % of control

CCCCCCCCCCCCCCCCCCNC(=S)N/N=C/c1ccc(Cl)cc1Cl
inactive: [11] 110 % of control | [9] 108 % of control | [12] 93 % of control

NNC(=S)N/N=C/c1ccccn1
inactive: dose: 1.56 mg/kg/injection, schedule: Q01DX009 (ip), vehicle: saline 98 % of control | dose: 3.12 mg/kg/injection, schedule: Q01DX009 (ip), vehicle: saline 102 % of control | [1] 107 % of control | [2] 114 % of control

COC(=O)C(CSC(c1ccccc1)(c1ccccc1)c1ccccc1)NC(=O)C(CC(N)=O)NC(=O)OCc1ccccc1 (stereo not drawn) (Cbz-Asn-Cys(Trt)-OMe; configuration not given here)
inactive: [13] 103 % of control | dose: 25.0 mg/kg/injection, schedule: Q01DX009 (ip), vehicle: distilled water + Tween-80 101 % of control | dose: 50.0 mg/kg/injection, schedule: Q01DX009 (ip), vehicle: distilled water + Tween-80 89 % of control | dose: 100.0 mg/kg/injection, schedule: Q01DX009 (ip), vehicle: distilled water + Tween-80 100 % of control | dose: 200.0 mg/kg/injection, schedule: Q01DX009 (ip), vehicle: distilled water + Tween-80 105 % of control | dose: 400.0 mg/kg/injection, schedule: Q01DX009 (ip), vehicle: distilled water + Tween-80 98 % of control

Clc1ccc2c(Cl)ncnc2c1
inactive: [10] 107 % of control | [11] 118 % of control | [9] 111 % of control

O=c1ccn(C2OC(CO)C(O)C2O)c(=O)[nH]1 (centres undefined)
inactive: dose: 32.0 mg/kg/injection, schedule: Q01DX009 (ip), vehicle: Klucel (hydroxypropylcellulose) (HPC) 109 % of control | dose: 64.0 mg/kg/injection, schedule: Q01DX009 (ip), vehicle: Klucel (hydroxypropylcellulose) (HPC) 96 % of control | dose: 128.0 mg/kg/injection, schedule: Q01DX009 (ip), vehicle: Klucel (hydroxypropylcellulose) (HPC) 96 % of control | dose: 256.0 mg/kg/injection, schedule: Q01DX009 (ip), vehicle: Klucel (hydroxypropylcellulose) (HPC) 110 % of control | dose: 512.0 mg/kg/injection, schedule: Q01DX009 (ip), vehicle: Klucel (hydroxypropylcellulose) (HPC) 106 % of control

NC(=O)c1[nH]nc(C2OC(CO)C(O)C2O)c1O (centres undefined)
inactive: dose: 78.13 micrograms/kg/injection, schedule: Q01DX009 (ip), vehicle: water 98 % of control | dose: 156.25 micrograms/kg/injection, schedule: Q01DX009 (ip), vehicle: water 118 % of control | dose: 312.5 micrograms/kg/injection, schedule: Q01DX009 (ip), vehicle: water 87 % of control | dose: 625.0 micrograms/kg/injection, schedule: Q01DX009 (ip), vehicle: water 122 % of control

COc1cccc2c1C(=O)c1c(O)c3c(c(O)c1C2=O)C[C@@](O)(/C(C)=N\O)C[C@@H]3OC1CC(N)C(O)C(C)O1 (some centres undefined)
inactive: dose: 3.13 mg/kg/injection, schedule: Q01DX009 (ip), vehicle: water 108 % of control | dose: 6.25 mg/kg/injection, schedule: Q01DX009 (ip), vehicle: water 99 % of control | dose: 12.5 mg/kg/injection, schedule: Q01DX009 (ip), vehicle: water 114 % of control

NC(N)=NOCC[C@@H](N)C(=O)O
inactive: [3] 105 % of control | [4] 99 % of control | [5] 107 % of control | [6] 94 % of control | [14] 112 % of control

Cc1ccc2c(c1)C(=O)N(CC[P+](c1ccccc1)(c1ccccc1)c1ccccc1)C2=O
inactive: dose: 0.78 mg/kg/injection, schedule: Q09DX009 (ip), vehicle: water 98 % of control | dose: 1.56 mg/kg/injection, schedule: Q09DX009 (ip), vehicle: water 89 % of control | dose: 3.12 mg/kg/injection, schedule: Q09DX009 (ip), vehicle: water 89 % of control | dose: 6.25 mg/kg/injection, schedule: Q09DX009 (ip), vehicle: water 87 % of control | dose: 12.5 mg/kg/injection, schedule: Q09DX009 (ip), vehicle: water 97 % of control

CC1(C)COCN1COC1CCCCC1
inactive: [2] 112 % of control and 118 % of control | [3] 98 % of control and 111 % of control | [4] 97 % of control and 115 % of control | [5] 95 % of control and 99 % of control

CC1CN1C(=O)NCCCCCCNC(=O)N1CC1C (centres undefined)
inactive: dose: 2.5 mg/kg/injection, schedule: Q01DX009 (ip), vehicle: saline + alcohol 111 % of control

O=CN(SSN(C=O)C1CCCCC1)C1CCCCC1
inactive: [7] 114 % of control | [8] 108 % of control | [10] 99 % of control | [11] 95 % of control | [9] 101 % of control | [12] 87 % of control

c1ccc2c3c(ccc2c1)Sc1ccc2ccccc2c1N3
inactive: [11] 111 % of control | [12] 102 % of control

CNc1cccnc1/C=N/NC(N)=S
inactive: dose: 12.0 mg/kg/injection, schedule: Q01DX009 (ip), vehicle: saline with Tween-80 100 % of control | [8] 103 % of control | [10] 102 % of control | [11] 115 % of control

COC1/C=C/O[C@@]2(C)Oc3c(C)c(O)c4c(O)c(cc(O)c4c3C2=O)NC(=O)/C(C)=C\C=C\[C@H](C)C(O)[C@@H](C)[C@@H](O)[C@@H](C)[C@H](OC(C)=O)[C@@H]1C (some centres undefined)
inactive: [7] 102 % of control | [8] 101 % of control | [10] 103 % of control | [11] 107 % of control | [9] 102 % of control | [12] 111 % of control

CC[C@](C)(O)C(=O)O[C@H]1C(=O)O[C@@H]2C[C@H]3C(C)=CC(=O)[C@@H](O)[C@]3(C)[C@H]3[C@@]4(O)OC[C@]32[C@@H]1[C@@H](C)[C@H]4O
inactive: dose: 0.12 mg/kg/injection, schedule: Q01DX009 (ip), vehicle: steriod suspending solution 92 % of control | dose: 0.25 mg/kg/injection, schedule: Q01DX009 (ip), vehicle: steriod suspending solution 106 % of control | dose: 0.5 mg/kg/injection, schedule: Q01DX009 (ip), vehicle: steriod suspending solution 99 % of control

OCC1(CO)COC2(CCCCC2)N1
inactive: [2] 102 % of control | [3] 100 % of control | [4] 102 % of control | [5] 100 % of control | [6] 101 % of control | [14] 103 % of control
